From US20230248744A1, “25-HYDROXYVITAMIN D2 AND/OR D3 FOR USE IN OBESITY” (CARBOGEN AMCIS B.V., priority 2020, published 2023)

Test: Calculated total uptake into blood and deposition of vitamin D3 from the blood level curves (FIG. 6)
Type: in vivo, human
Details: for amount of vitamin D3 deposited in the first 24 hours: assuming a total blood volume of 5 liters
From the text: FIG. 6: The upper curves show the calculated total amounts of vitamin D3 arriving in blood of malabsorptive, obese and normal individuals. The lower curves show the experimental blood levels of vitamin D3 expressed in ng/mL of blood. The upper curves are as well expressed in ng/mL of blood, disregarding differing total blood volumes for malabsorptive, obese and normal individuals.
In order to further analyze the results, the shape of the concentration/time-curves describing the observed average blood levels of vitamin D3 was used to approximately calculate its total uptake into blood after dosage. The calculation was based on the assumptions compiled in the comments regarding FIG. 6. Metabolism in terms of the appearance of 25(OH)D3 which was experimentally determined in parallel to vitamin D3 can thereby be regarded as part of the immediately disappearing percentage of the total uptake into blood, and it is reasonable to assume that there is no other relevant metabolic step in this early phase, which has to be taken into account.
FIG. 6 presents the accordingly calculated total uptake and the experimentally determined levels of vitamin D3 for the first 24 hours after dosing. The difference between the upper (calculated) and the lower (experimental) curve represents the sum of metabolism and deposition. Herein the assumption is made that the elimination can be disregarded, because as known to the skilled person there is essentially no elimination of non-metabolized vitamin D3 from blood into urine. Metabolism in the first 24 hours results in all three cases (viz., malabsorptive, obese, and normal subjects) in the consumption of about 2 to 5 ng/mL, viz. a small part of the mentioned calculated difference (compare FIG. 7). No correction relating to said consumption seems necessary for determining the metabolite's observed concentration because the metabolite is rapidly forming a DBP-complex, characterized by a long half-life. However, the fact that the 25(OH)D3 formed must be determined as difference to baseline adds an element of uncertainty and the assumption that no more than a minor part of the 25(OH)D3 formed in this phase may not be absolutely to the point.
wherein the same correction regarding metabolism, as described above, was used for the obese and for the normal individuals, viz. 1.5 ng/mL at 15 hours and 3.5 ng/mL at 24 hours, respectively. These values come from FIG. 7B and are charged with a significant uncertainty—due to the significant experimental error in the early part of the respective curves. But they make sense, if inspecting the subsequent increase which can be more reliably determined. […]
The following relates to the coverage of the surface of adipocytes with vitamin D3. […] A homogenous cell diameter of 50 μm was determined to deliver about the same overall cell-surface one calculates by working with the rather wide experimental distribution of cell sizes as reported by Karin G. Stenkula et al. Thereby it was in the sense of a model consideration assumed that cubes containing large lipid droplet cubes can be used to describe the cells' shape (in other words: cubes of an edge-length of 50 μm enclosing cubes of about the same size were determined to represent a reasonable model for the description of the combined surface of the variable size cells' with their lipid droplets). […]

C=C1CC[C@H](O)C/C1=C/C=C1\CCC[C@]2(C)[C@@H]([C@H](C)CCCC(C)C)CC[C@@H]12 [vitamin D3, cholecalciferol]
R, deposition in fatty tissues in high BMI versus low BMI subjects (after 2½ days, from difference to Cmax and differing blood volumes): 1.05 times
amount of vitamin D3 deposited in the first 24 hours (healthy obese subjects): 92.5 µg
deposition of vitamin D3 (low BMI group, after 2½ days): ~7400 I.U.
amount of vitamin D3 deposited in the first 24 hours (normal subjects): 62.5 µg
deposition in healthy obese versus normal low BMI subjects (time point of 15 hours): 1.5 times
